# Like-named read-outs stand apart in the source and are kept apart here. Marks after values point to notes of the source that are not given here.
# Assays:
# [1] = assay type: in vivo, rat; details: for Bile/Urine (%): bile share of U excretion / Bile/Urine (%): urine share of U excretion / % Administered Dose Excreted: 24 h; for Reduction (%) of renal uranium vs control / reduction of bone actinide content vs control: 24 h post-metal; for % Administered Dose Excreted: bile + urine; for Renal Conc.: kidneys removed 24 h post-metal; for Kidney U Conc. / Liver U Conc. / Lung U Conc. / Spleen U Conc. / Bone (femur) U Conc.: tissue 24 h post-metal; for Bone (femur) U Conc.: bone + bone marrow; for reduction of bone actinide content vs control: femur
# [2] = system: rats; details: rats; ref Bergeron et al., 1993; cited from earlier work
Compound,Bile/Urine (%): bile share of U excretion ([1]; single dose 150 µmol kg^−1 SC) [%],Bile/Urine (%): urine share of U excretion ([1]; single dose 150 µmol kg^−1 SC) [%],Reduction (%) of renal uranium vs control ([1]; single dose 150 µmol kg^−1 SC) [%],% Administered Dose Excreted ([1]; single dose 150 µmol kg^−1 SC) [%],Renal Conc. ([1]; single dose 150 µmol kg^−1 SC),Kidney U Conc. ([1]; single dose 150 µmol kg^−1 SC),Liver U Conc. ([1]; single dose 150 µmol kg^−1 SC),Lung U Conc. ([1]; single dose 150 µmol kg^−1 SC),Spleen U Conc. ([1]; single dose 150 µmol kg^−1 SC),Bone (femur) U Conc. ([1]; single dose 150 µmol kg^−1 SC) [µg/g],Bile/Urine (%): bile share of U excretion ([1]; single dose 300 µmol kg^−1 PO) [%],Bile/Urine (%): urine share of U excretion ([1]; single dose 300 µmol kg^−1 PO) [%],Reduction (%) of renal uranium vs control ([1]; single dose 300 µmol kg^−1 PO) [%],% Administered Dose Excreted ([1]; single dose 300 µmol kg^−1 PO) [%],Renal Conc. ([1]; single dose 300 µmol kg^−1 PO),Kidney U Conc. ([1]; single dose 300 µmol kg^−1 PO),Liver U Conc. ([1]; single dose 300 µmol kg^−1 PO),Lung U Conc. ([1]; single dose 300 µmol kg^−1 PO),Spleen U Conc. ([1]; single dose 300 µmol kg^−1 PO),Bone (femur) U Conc. ([1]; single dose 300 µmol kg^−1 PO),also measured
"COc1ccc(C2=N[C@@](C)(C(=O)O)CS2)c(O)c1 [compound 7, (S)-4'-(CH3O)-DADFT]",62,38,77,24.8,19 ± 4 ^b µg g^−1,19 ± 4 ^b µg g^−1,11.3 ± 3.2 µg/g,0.28 ± 0.04 ^c µg g^−1,0.39 ± 0.08 ^c µg g^−1,2.9 ± 0.9,89,11,94,26.5,5 ± 3 ^b µg g^−1,5 ± 3 ^b µg g^−1,5.1 ± 1.7 ^c µg g^−1,0.30 ± 0.10 ^c µg g^−1,0.49 ± 0.44 µg/g,1.7 ± 0.9 ^b µg g^−1,"Liver U Conc. ([1]; single dose 150 µmol kg^−1 SC, listed as C00017): 11.3 ± 3.2 ^c µg g^−1; Bile/Urine (%): bile share of U excretion ([1]; single dose 300 µmol kg^−1 SC): 92%; Bile/Urine (%): urine share of U excretion ([1]; single dose 300 µmol kg^−1 SC): 8%; Reduction (%) of renal uranium vs control ([1]; single dose 300 µmol kg^−1 SC): 90%; % Administered Dose Excreted ([1]; single dose 300 µmol kg^−1 SC): 33.9%; Renal Conc. ([1]; single dose 300 µmol kg^−1 SC): 8 ± 2 ^b µg g^−1; Kidney U Conc. ([1]; single dose 300 µmol kg^−1 SC): 8 ± 2 ^b µg g^−1; Liver U Conc. ([1]; single dose 300 µmol kg^−1 SC): 8.1 ± 2.4 ^c µg g^−1; Lung U Conc. ([1]; single dose 300 µmol kg^−1 SC): 0.61 ± 0.13 ^c µg g^−1; Spleen U Conc. ([1]; single dose 300 µmol kg^−1 SC): 0.67 ± 0.18 ^c µg g^−1; Bone (femur) U Conc. ([1]; single dose 300 µmol kg^−1 SC): 1.8 ± 0.6 ^b µg g^−1; reduction of bone actinide content vs control ([1]; single dose 300 µmol kg^−1 p.o.): ≥ 50%; reduction of bone actinide content vs control ([1]; single dose 300 µmol kg^−1 s.c.): ≥ 50%"
"COc1ccc(C2=N[C@@H](C(=O)O)CS2)c(O)c1 [compound 3, (S)-2-(2-hydroxy-4-methoxyphenyl)-4,5-dihydro-4-thiazolecarboxylic acid]",37,63,40,23.8,51 ± 22 ^b µg g^−1,51 ± 22 ^b µg g^−1,9.0 ± 4.0 ^c µg g^−1,0.32 ± 0.09 ^c µg g^−1,0.48 ± 0.09 ^c µg g^−1,4.1 ± 1.6,85,15,73,26.0,23 ± 11 ^b µg g^−1,23 ± 11 ^b µg g^−1,2.5 ± 0.8 ^c µg g^−1,0.28 ± 0.10 ^c µg g^−1,0.29 ± 0.07 ^c µg g^−1,3.1 ± 1.3 µg/g,Bile/Urine (%): bile share of U excretion ([1]; single dose 300 µmol kg^−1 SC): 77%; Bile/Urine (%): urine share of U excretion ([1]; single dose 300 µmol kg^−1 SC): 23%; Reduction (%) of renal uranium vs control ([1]; single dose 300 µmol kg^−1 SC): 60%; % Administered Dose Excreted ([1]; single dose 300 µmol kg^−1 SC): 32.7%; Renal Conc. ([1]; single dose 300 µmol kg^−1 SC): 34 ± 5 ^b µg g^−1; Kidney U Conc. ([1]; single dose 300 µmol kg^−1 SC): 34 ± 5 ^b µg g^−1; Liver U Conc. ([1]; single dose 300 µmol kg^−1 SC): 6.6 ± 1.2 ^c µg g^−1; Lung U Conc. ([1]; single dose 300 µmol kg^−1 SC): 0.32 ± 0.02 ^c µg g^−1; Spleen U Conc. ([1]; single dose 300 µmol kg^−1 SC): 0.39 ± 0.07 ^c µg g^−1; Bone (femur) U Conc. ([1]; single dose 300 µmol kg^−1 SC): 3.0 ± 1.5 µg/g
"C[C@]1(C(=O)O)CSC(c2ncccc2O)=N1 [DFT, (S)-4,5-dihydro-2-(3-hydroxy-2-pyridinyl)-4-methyl-4-thiazolecarboxylic acid, reference compound]",,,,,,,,,,,,,,,,,,,,,nephrotoxicity [2]: severe nephrotoxicity
